# According to US20080021002A1, “VITAMIN D COMPOUNDS USED TO STABILIZE KIDNEY TRANSPLANTS” (priority 2000, published 2008):
# Key:
# [1] = test system: kidney or kidney-pancreas transplant recipients; assay: Retrospective analysis of renal function (serial serum creatinine) in calcitriol-treated transplant patients; type: in vivo, human
# Description: Methodology-retrospective analysis: The University of Wisconsin transplant database was screened to identify any kidney and/or kidney-pancreas transplant recipient who received 1,25-dihydroxyvitamin D3 (calcitriol)peri-post-transplant. Clinical and demographic variables were abstracted from the database. Those patients with adequate follow-up data were included in the analysis (≧1year follow-up data following the initiation of calcitriol). Demographic variables included race, age, and nay history of parathyroidectomy as these patients would likely be receiving calcitriol at time of transplantation. The effect of calcitriol treatment on renal function was analyzed using general linear mixed modeling of the change in slope of renal function prior to and following the start of calcitriol therapy. […] Adverse events and hypercalcemia were noted by identifiers in the database and by serum calcium levels as recorded in the database. Hypercalcemia was defined as a serum calcium >10.5 mg/dl. Data assessment—Demographics: Calcitriol-treatment patients were divided into: Group 1: patients who initiated calcitriol therapy<one year following transplantation, Group 2: patients who remained on or initiated calcitriol therapy within two weeks of transplantation, Data assessment—outcomes for Group 1 patients: Renal function was determined by assessing serial serum creatinine values. This serum measure is a standard and accepted measure of renal function. The start of calcitriol therapy was defined as day 0. Time prior to initiation of calcitriol therapy was designated by a negative value. Mean serum creatinine levels appeared to increase in Group 1 patients (indicative of declining renal function) until the time of calcitriol therapy was initiated (Table 3).
# [2] = test system: TGFβ-1 mRNA; assay: Semi-quantitative RT-PCR of renal grafts, TGFβ-1 mRNA; type: in vivo, rat; conditions: treated recipients vs untreated allogeneic control grafts
# Experimental: (§1) Semi-quantitative Reverse transcription polymerace chain reaction (RT-PCR): Following graft harvest a […] containing both cortex and medulla was snap frozen in liquid nitrogen. Semi-quantitative RT-PCR was performed as described. Little et al. Transplant Int. 12:393-401, 1999. Briefly, samples were homogenized then total RNA extracted with RNAzol B (Tel Test, Inc., Friendswood, Tex.) and reversed transcribed to cDNA according to manufacturer=s instructions (Superscript, Gibco BRL). PCR was performed over the linear range of amplification for both the gene of interest, e.g. TGFβ-1, and the ribosomal protein S26 as a control housekeeping gene. PCR conditions were chosen such that both products were amplified with similar efficiency. The following cycle parameters were employed: denaturing, 94° C. for 60 seconds; annealing, 61° C. for 60 seconds; and extension, 72° C. for 60 seconds. The amount of product was quantified using a phosphoimager (Storm 80) following gel electrophoresis and Vista green detection.
# [3] = test system: TIMP 1 mRNA; assay: Semi-quantitative RT-PCR of renal grafts, TIMP 1 mRNA; type: in vivo, rat; conditions: all groups vs untreated allograft recipients, regardless of treatment
# Experimental: FIG. 5 is a set of graphs showing that 1,25-(OH)2D3 Treatment Alters MMP and TIMP Expression . […] S26 was used as the housekeeping gene. […] Fold changes are expressed relative to the allogeneic untreated control.
# as §1
# [4] = Effect of calcitriol on CsA and FK506 serum levels and dosages in transplant patients; type: in vivo, human
# Description: Methodology-retrospective analysis: The University of Wisconsin transplant database was screened to identify any kidney and/or kidney-pancreas transplant recipient who received 1,25-dihydroxyvitamin D3 (calcitriol)peri-post-transplant. Clinical and demographic variables were abstracted from the database. Those patients with adequate follow-up data were included in the analysis (≧1year follow-up data following the initiation of calcitriol). Demographic variables included race, age, and nay history of parathyroidectomy as these patients would likely be receiving calcitriol at time of transplantation. The effect of calcitriol treatment on renal function was analyzed using general linear mixed modeling of the change in slope of renal function prior to and following the start of calcitriol therapy. […] Adverse events and hypercalcemia were noted by identifiers in the database and by serum calcium levels as recorded in the database. Hypercalcemia was defined as a serum calcium >10.5 mg/dl. […] Both of these agents have beneficial effects in prolonging allograft function by altering the ability for activated T cells to produce interleukin-2 (IL-2). However, both of these agents are also associated with drug-related nephrotoxicity that is manifested by characteristic histologic changes in the allograft, e.g. tubulointerstitial fibrosis, and loss of allograft function long-term.
smiles,measurement,setting,value
"C=C1/C(=C\C=C2/CCC[C@]3(C)[C@@H]([C@H](C)CCCC(C)(C)O)CC[C@@H]23)C[C@@H](O)C[C@@H]1O [calcitriol, 1,25-dihydroxyvitamin D3]",Graft failures (loss of the transplant),[1]; Group 1 (26 patients),six
same,Serum creatinine levels following initiation of therapy,[1]; Group 1 patients,stabilized
same,Mean serum creatinine,"[1]; Group 1 patients, day 100 after start of calcitriol therapy",2.54 mg/dL
same,Mean serum creatinine,"[1]; Group 1 patients, day 200 after start of calcitriol therapy",2.44 mg/dL
same,Mean serum creatinine,"[1]; Group 1 patients, day 300 after start of calcitriol therapy",2.50 mg/dL
same,Mean serum creatinine,"[1]; Group 1 patients, day 400 after start of calcitriol therapy",2.27 mg/dL
same,Mean serum creatinine,"[1]; Group 1 patients, day 500 after start of calcitriol therapy",2.37 mg/dL
same,Creatinine trend (slope) after 300 days of therapy,"[1]; Group 1 patients, repeated measures analysis of slopes",creatinine was decreasing evidenced by a negative slope
same,Difference (change in slope of serum creatinine over time),"[1]; Group 1 patients, treatment day +100, negative = decreasing slope, improved renal function",−0.0050
same,Difference (change in slope of serum creatinine over time),"[1]; Group 1 patients, treatment day +200",−0.0046
same,Difference (change in slope of serum creatinine over time),"[1]; Group 1 patients, treatment day +300",−0.0080
same,Difference (change in slope of serum creatinine over time),"[1]; Group 1 patients, treatment day +400",−0.0085
same,Difference (change in slope of serum creatinine over time),"[1]; Group 1 patients, treatment day +500",−0.0078
same,Graft failures,[1]; Group 2 (22 patients),two
same,Analysis of interval slopes of serum creatinine,[1]; Group 2 patients,no interview slopes significantly different from 0
same,Mean serum creatinine,"[1]; Group 2 patients (table title prints Group 1), day 100 of calcitriol",1.61 mg/dL
same,Mean serum creatinine,"[1]; Group 2 patients (table title prints Group 1), day 200 of calcitriol",1.79 mg/dL
same,Mean serum creatinine,"[1]; Group 2 patients (table title prints Group 1), day 300 of calcitriol",1.70 mg/dL
same,Mean serum creatinine,"[1]; Group 2 patients (table title prints Group 1), day 400 of calcitriol",1.62 mg/dL
same,Mean serum creatinine,"[1]; Group 2 patients (table title prints Group 1), day 500 of calcitriol",1.82 mg/dL
same,Mean serum creatinine levels over time,"[1]; Group 2 patients, first 600 days following initiation of calcitriol",remained stable
same,TGFβ-1 mRNA levels,[2],no significant difference
same,TIMP 1 mRNA expression,[3],decreased
same,Effect on CsA or FK506 dosages or serum drug levels,[4]; combined analysis of all Group 1 and Group 2 patients,no significant effect
same,Trends in mean CsA levels or variability in CsA levels,[4]; seven of the 26 Group 1 patients with serial CsA levels,No trends
